Activity and IC50 data for 20 compounds are collected here from ChEMBL document CHEMBL1147673, “NO-donor phenols: a new class of products endowed with antioxidant and vasodilator properties” (J Med Chem, 2006).

As a reminder, the IC50 is the concentration that gives 50% inhibition.

For the first experiment, the target named is T1, Alpha-1D adrenergic receptor (Rattus norvegicus) (UniProt P23944).
T1 sequence (whole entry): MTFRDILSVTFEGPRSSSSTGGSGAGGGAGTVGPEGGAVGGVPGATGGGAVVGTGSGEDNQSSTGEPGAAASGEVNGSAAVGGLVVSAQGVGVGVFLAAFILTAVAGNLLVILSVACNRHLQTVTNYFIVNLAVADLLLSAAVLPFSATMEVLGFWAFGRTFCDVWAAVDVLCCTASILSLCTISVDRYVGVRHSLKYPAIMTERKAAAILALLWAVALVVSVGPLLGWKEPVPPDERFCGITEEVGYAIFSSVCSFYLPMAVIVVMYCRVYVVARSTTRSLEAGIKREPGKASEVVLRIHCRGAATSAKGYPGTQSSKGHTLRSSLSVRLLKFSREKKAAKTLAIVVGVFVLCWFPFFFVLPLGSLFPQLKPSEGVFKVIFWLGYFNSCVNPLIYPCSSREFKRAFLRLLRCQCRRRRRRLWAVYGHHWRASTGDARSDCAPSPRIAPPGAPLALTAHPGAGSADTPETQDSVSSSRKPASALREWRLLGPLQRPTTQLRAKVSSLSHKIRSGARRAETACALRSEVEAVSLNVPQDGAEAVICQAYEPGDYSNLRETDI
The experiment can be described thus: Vasodilator activity assessed as ability to relax phenylephrine-induced contraction of Wistar rat aortic strips at 30 uM in presence of 1 uM ODQ. The arrangement: scale not given: the % may be the effect or the level left. The experiment is classed as functional, tissue-based. The following applies: Aorta.
As to `CC(C)(C)c1cc(CC(CO[N+](=O)[O-])[N+](=O)[O-])cc(C(C)(C)C)c1O` (stereo unspecified), the Activity came to 24%.

Another experiment relates to Radical scavenging activity. The experiment can be described thus: Antioxidant activity assessed as inhibition of TBARS production in ferrous salt/ascorbate-induced lipid peroxidation in Wistar rat liver microsomal membrane. The experiment is classed as functional, microsomes.
Conditions: not given; call rule not given here
(In general: Microsomes from liver hold many membrane-bound enzymes, among them those of drug oxidation.)
Take `Cc1c(C)c2c(c(C)c1O)CCC(C)(COCCCO[N+](=O)[O-])O2` (stereo unspecified): the IC50 worked out at 150 nM.

As to `COc1cc(CCCO[N+](=O)[O-])cc(OC)c1O`, the IC50 was 5900 nM.

For `CCOc1no[n+]([O-])c1S(=O)(=O)c1ccccc1`, the IC50 amounted to 110000 nM.

Take `COc1cc(CCCOc2no[n+]([O-])c2S(=O)(=O)c2ccccc2)cc(OC)c1O`: the IC50 worked out at 3400 nM.

For `CN(CCCc1cc(C(C)(C)C)c(O)c(C(C)(C)C)c1)Cc1no[n+]([O-])c1C(N)=O`, the IC50 worked out at 1200 nM.

For `Cc1ccc(O)cc1` [p-CRESOL], the IC50 is 290000 nM.

As for `O=S(=O)(c1ccccc1)c1c(OCCCc2ccc(O)cc2)no[n+]1[O-]`, the IC50 is 47000 nM.

As to `CC(C)(C)c1cc(CCCOc2no[n+]([O-])c2S(=O)(=O)c2ccccc2)cc(C(C)(C)C)c1O`, the IC50 turned out to be 2000 nM.

For the compound `Cc1c(C)c2c(c(C)c1O)CCC(C)(COc1no[n+]([O-])c1S(=O)(=O)c1ccccc1)O2` (stereo unspecified), the IC50 worked out at 490 nM.

For the compound `O=[N+]([O-])OCC(Cc1ccc(O)cc1)[N+](=O)[O-]` (stereo unspecified), the IC50 amounted to 185000 nM.

Consider `COc1cc(CC(CO[N+](=O)[O-])[N+](=O)[O-])cc(OC)c1O` (stereo unspecified), for which the IC50 amounted to 5400 nM.

With `COc1cc(C)cc(OC)c1O`, the IC50 was 18000 nM.

Turning to `Cc1c(C)c2c(c(C)c1O)CCC(C)(C)O2` [APC-100], the IC50 is 170 nM.

On to `Cc1cc(C(C)(C)C)c(O)c(C(C)(C)C)c1` [BUTYLATED HYDROXYTOLUENE], for which the IC50 stood at 1700 nM.

On to `O=[N+]([O-])OCCCc1ccc(O)cc1`, for which the IC50 is 143000 nM.

In the case of `Cc1c(C)c2c(c(C)c1O)CCC(C)(CN(C)Cc1no[n+]([O-])c1C(N)=O)O2` (stereo unspecified), the IC50 was found to be 140 nM.

On to `CC(C)(C)c1cc(CC(CO[N+](=O)[O-])[N+](=O)[O-])cc(C(C)(C)C)c1O` (stereo unspecified), for which the IC50 turned out to be 2600 nM.

On to `CC(C)(C)c1cc(CCCO[N+](=O)[O-])cc(C(C)(C)C)c1O`, for which the IC50 is 2000 nM.

The subject of a further experiment is Radical scavenging activity. Description: Antioxidant activity assessed as inhibition of TBARS production in ferrous salt/ascorbate-induced lipid peroxidation in Wistar rat liver microsomal membrane at 1 mM. It counts as functional, microsomes.
Conditions: not given
With `CN(C)Cc1no[n+]([O-])c1C(N)=O`, the IC50 result is given as “Not Active”.

For the compound `NC(=O)c1c(CO)no[n+]1[O-]`, the IC50 result was “Not Active”.
